Data taken from US20240165244A1 (Prelude Therapeutics Incorporated, priority 2022, published 2024).

Experiments:
[1] = biological target: T1, SMARCA4 (Homo sapiens, UniProt P51532); experiment: SMARCA4 HiBiT degradation assay in HeLa cells; assay type: cell-based; settings: 18 hours, highest concentration 10 μM
T1 construct: SMARCA4-HiBiT knock-in Hela monoclonal cell (CS3023226); host or cells: HeLa monoclonal cells with heterozygous HiBiT knock-in at the endogenous SMARCA4 locus
Method in brief: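 HeLa monoclonal cells with HiBiT knocked into SMARCA4 were seeded at 2500 cells/well, dosed with compound and incubated 18 hours at 37° C. HiBiT signal reported remaining SMARCA4 protein, and values came from curve fitting.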

[2] = biological target: T2, SMARCA2 (Homo sapiens, UniProt P51531); experiment: SMARCA2 HiBiT degradation assay in HeLa cells; assay type: cell-based; settings: 18 hours, highest concentration 10 μM
T2 construct: SMARCA2-HiBiT knock-in Hela monoclonal cell (CS302366); host or cells: HeLa monoclonal cells with heterozygous HiBiT knock-in at the endogenous SMARCA2 locus
T2 sequence (P51531 whole entry): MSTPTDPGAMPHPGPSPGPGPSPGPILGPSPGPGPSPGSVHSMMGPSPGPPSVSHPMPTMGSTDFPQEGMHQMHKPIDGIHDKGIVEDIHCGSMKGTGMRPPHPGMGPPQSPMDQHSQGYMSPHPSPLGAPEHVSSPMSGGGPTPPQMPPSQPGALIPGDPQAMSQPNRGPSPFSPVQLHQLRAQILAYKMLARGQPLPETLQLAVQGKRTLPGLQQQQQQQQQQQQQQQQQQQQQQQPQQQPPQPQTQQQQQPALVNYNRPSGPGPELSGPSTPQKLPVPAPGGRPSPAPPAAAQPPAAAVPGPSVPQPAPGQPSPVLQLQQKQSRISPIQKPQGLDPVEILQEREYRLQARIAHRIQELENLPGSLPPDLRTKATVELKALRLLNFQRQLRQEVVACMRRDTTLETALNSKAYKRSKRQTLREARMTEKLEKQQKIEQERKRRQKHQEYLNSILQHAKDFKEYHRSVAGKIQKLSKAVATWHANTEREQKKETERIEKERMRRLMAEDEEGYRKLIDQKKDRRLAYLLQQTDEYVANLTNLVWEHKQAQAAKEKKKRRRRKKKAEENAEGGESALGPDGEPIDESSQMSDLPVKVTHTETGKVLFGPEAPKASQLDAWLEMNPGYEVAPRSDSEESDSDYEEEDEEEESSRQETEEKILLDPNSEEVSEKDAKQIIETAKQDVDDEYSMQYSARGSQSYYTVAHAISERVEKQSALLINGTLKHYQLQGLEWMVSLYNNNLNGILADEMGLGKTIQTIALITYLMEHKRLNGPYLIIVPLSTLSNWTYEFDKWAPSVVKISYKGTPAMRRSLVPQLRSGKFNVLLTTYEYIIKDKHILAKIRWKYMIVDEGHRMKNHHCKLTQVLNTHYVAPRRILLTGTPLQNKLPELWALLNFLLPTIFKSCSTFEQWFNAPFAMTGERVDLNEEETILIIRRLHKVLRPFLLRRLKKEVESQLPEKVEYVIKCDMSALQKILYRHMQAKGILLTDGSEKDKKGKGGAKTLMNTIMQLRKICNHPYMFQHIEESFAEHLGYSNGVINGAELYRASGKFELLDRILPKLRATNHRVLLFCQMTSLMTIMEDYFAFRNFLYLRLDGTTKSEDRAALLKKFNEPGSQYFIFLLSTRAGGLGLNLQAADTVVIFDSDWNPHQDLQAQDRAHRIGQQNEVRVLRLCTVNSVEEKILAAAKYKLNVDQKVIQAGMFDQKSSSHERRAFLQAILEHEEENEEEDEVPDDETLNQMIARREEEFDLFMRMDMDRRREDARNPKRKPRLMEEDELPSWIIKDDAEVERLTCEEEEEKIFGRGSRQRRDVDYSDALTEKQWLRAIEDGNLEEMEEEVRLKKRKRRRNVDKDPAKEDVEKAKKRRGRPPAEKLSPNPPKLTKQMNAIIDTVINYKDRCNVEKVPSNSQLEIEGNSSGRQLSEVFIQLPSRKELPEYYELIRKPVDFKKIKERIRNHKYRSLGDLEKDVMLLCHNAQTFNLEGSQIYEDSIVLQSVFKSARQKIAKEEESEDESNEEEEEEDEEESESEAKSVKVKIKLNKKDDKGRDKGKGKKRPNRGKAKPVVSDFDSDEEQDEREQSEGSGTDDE
Method in brief: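 Degradation was read as Nano-Glo HiBiT lytic luminescence (30-60 min, RT) and fitted to curves. Compounds in 3-fold dilutions up to 10 μM were applied for 18 h at 37 °C. Cells were 2500/well monoclonal HeLa with a heterozygous C-terminal HiBiT tag on SMARCA2.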

T1 sequence (P51532 whole entry): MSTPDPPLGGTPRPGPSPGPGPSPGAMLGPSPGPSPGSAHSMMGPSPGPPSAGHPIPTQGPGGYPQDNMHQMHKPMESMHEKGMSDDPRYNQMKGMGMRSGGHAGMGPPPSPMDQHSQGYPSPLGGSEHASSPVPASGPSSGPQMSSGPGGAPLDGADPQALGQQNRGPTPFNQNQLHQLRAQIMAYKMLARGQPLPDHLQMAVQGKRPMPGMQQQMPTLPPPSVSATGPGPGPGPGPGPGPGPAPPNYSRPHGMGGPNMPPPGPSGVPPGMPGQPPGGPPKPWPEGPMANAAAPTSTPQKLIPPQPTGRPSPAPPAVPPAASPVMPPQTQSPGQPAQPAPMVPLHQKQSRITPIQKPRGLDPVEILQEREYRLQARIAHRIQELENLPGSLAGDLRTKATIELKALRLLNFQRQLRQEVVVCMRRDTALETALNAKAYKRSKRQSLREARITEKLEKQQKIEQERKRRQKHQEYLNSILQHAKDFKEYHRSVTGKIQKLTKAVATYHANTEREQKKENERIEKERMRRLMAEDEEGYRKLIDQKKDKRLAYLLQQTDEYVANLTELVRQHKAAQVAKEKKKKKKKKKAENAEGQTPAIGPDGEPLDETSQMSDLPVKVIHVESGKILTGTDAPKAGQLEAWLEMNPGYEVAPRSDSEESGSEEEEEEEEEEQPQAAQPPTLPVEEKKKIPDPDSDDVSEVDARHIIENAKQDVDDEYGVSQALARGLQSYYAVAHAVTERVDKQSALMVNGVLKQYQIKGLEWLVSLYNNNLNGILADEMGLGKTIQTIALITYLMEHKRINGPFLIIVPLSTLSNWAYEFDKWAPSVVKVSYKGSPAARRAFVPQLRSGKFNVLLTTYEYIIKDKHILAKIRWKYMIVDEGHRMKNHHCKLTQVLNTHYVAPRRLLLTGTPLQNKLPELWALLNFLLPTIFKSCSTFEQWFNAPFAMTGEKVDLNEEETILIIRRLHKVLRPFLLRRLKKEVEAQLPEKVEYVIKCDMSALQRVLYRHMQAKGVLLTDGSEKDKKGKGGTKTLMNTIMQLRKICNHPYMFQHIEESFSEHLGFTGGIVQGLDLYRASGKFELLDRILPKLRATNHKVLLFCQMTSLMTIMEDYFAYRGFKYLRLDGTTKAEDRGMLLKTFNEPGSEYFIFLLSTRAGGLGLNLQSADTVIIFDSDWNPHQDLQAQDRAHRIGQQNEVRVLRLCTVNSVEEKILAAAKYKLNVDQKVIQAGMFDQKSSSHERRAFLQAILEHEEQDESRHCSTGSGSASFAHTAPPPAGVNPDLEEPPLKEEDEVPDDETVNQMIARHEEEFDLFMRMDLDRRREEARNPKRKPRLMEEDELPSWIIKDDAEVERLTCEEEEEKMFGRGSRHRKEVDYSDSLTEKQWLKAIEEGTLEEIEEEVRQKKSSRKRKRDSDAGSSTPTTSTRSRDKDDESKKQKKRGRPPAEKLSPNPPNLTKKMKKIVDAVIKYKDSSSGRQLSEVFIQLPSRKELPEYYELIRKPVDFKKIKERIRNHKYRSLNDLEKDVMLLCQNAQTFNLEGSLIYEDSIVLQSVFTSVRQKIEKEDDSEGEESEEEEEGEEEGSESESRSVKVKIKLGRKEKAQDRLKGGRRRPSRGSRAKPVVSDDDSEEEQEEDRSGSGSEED

Row | Structure (SMILES) | DC50 [1] [nM] | Dmax [1] [%] | DC50 [2] [nM] | Dmax [2] [%]
1 | Cc1nc(CN2CCN(c3ccc4c(c3)C(=O)N([C@H]3CCC(=O)NC3=O)C4)CC2)cnc1O[C@H]1CN2c3cc(-c4cccc(F)c4O)nnc3NC[C@@]2(CF)C1 [Example 64, (S)-3-(6-(4-((5-(((6aR,8R)-2-(3-fluoro-2-hydroxyphenyl)-6a-(fluoromethyl)-5,6,6a,7,8,9-hexahydropyrrolo[1′,2′:4,5]pyrazino[2,3-c]pyridazin-8-yl)oxy)-6-methylpyrazin-2-yl)methyl)piperazin-1-yl)-1-oxoisoindolin-2-yl)piperidine-2,6-dione] | 100 to 1000 | < 50 | < 100 | > 75
2 | CC[C@]12CNc3nnc(-c4cccc(Cl)c4O)cc3N1C[C@H](Oc1cnc(CN3CCC(c4ccc5c(c4)C(=O)N([C@H]4CCC(=O)NC4=O)C5)CC3)c(Cl)c1)C2 [Example 99, (S)-3-(6-(1-((3-chloro-5-(((6aS,8R)-2-(3-chloro-2-hydroxyphenyl)-6a-ethyl-5,6,6a,7,8,9-hexahydropyrrolo[1′,2′:4,5]pyrazino[2,3-c]pyridazin-8-yl)oxy)pyridin-2-yl)methyl)piperidin-4-yl)-1-oxoisoindolin-2-yl)piperidine-2,6-dione] | < 100 | 50 to 75 | < 100 | > 75
3 | CCc1nc(CN2CCN(c3ccc4c(c3)C(=O)N([C@H]3CCC(=O)NC3=O)C4)CC2)cnc1O[C@H]1CN2c3cc(-c4cccc(F)c4O)nnc3NC[C@@]2(CF)C1 [Example 67, (S)-3-(6-(4-((6-ethyl-5-(((6aR,8R)-2-(3-fluoro-2-hydroxyphenyl)-6a-(fluoromethyl)-5,6,6a,7,8,9-hexahydropyrrolo[1′,2′:4,5]pyrazino[2,3-c]pyridazin-8-yl)oxy)pyrazin-2-yl)methyl)piperazin-1-yl)-1-oxoisoindolin-2-yl)piperidine-2,6-dione] | > 1000 | < 50 | < 100 | > 75
4 | Cc1cc(O[C@@H]2C[C@@H]3CNc4nnc(-c5cc(F)cc(F)c5O)cc4N3C2)ncc1CN1CCN(c2ccc3c(c2)C(=O)N(C2CCC(=O)NC2=O)C3)CC1 (stereo partly drawn) [Example 27, 3-(6-(4-((6-(((6aR,8R)-2-(3,5-difluoro-2-hydroxyphenyl)-5,6,6a,7,8,9-hexahydropyrrolo[1′,2′:4,5]pyrazino[2,3-c]pyridazin-8-yl)oxy)-4-methylpyridin-3-yl)methyl)piperazin-1-yl)-1-oxoisoindolin-2-yl)piperidine-2,6-dione] | < 100 | 50 to 75 | < 100 | > 75
5 | CC[C@@]12CNc3nnc(-c4cccc(F)c4O)cc3N1C[C@H](Oc1cnc(CN3CCC(c4ccc5c(c4)C(=O)N([C@H]4CCC(=O)NC4=O)C5)CC3)c(F)c1)C2 [Example 101, (S)-3-(6-(1-((5-(((6aR,8R)-6a-ethyl-2-(3-fluoro-2-hydroxyphenyl)-5,6,6a,7,8,9-hexahydropyrrolo[1′,2′:4,5]pyrazino[2,3-c]pyridazin-8-yl)oxy)-3-fluoropyridin-2-yl)methyl)piperidin-4-yl)-1-oxoisoindolin-2-yl)piperidine-2,6-dione] | 100 to 1000 | < 50 | < 100 | > 75
6 | O=C1CCC(N2Cc3ccc(N4CCN(Cc5cnc(O[C@H]6CN7c8cc(-c9cccc(F)c9O)nnc8NC[C@]7(C(F)F)C6)nc5)CC4)cc3C2=O)C(=O)N1 (stereo partly drawn) [Example 42, 3-(6-(4-((2-(((6aS,8R)-6a-(difluoromethyl)-2-(3-fluoro-2-hydroxyphenyl)-5,6,6a,7,8,9-hexahydropyrrolo [1%2′:4,5]pyrazino[2,3-c]pyridazin-8-yl)oxy)pyrimidin-5-yl)methyl)piperazin-1-yl)-1-oxoisoindolin-2-yl)piperidine-2,6-dione] | > 1000 | < 50 | < 100 | > 75
7 | O=C1CCC(N2Cc3ccc(N4CCN(Cc5cnc(O[C@H]6CN7c8cc(-c9cccc(F)c9O)nnc8NC[C@@]7(C(F)F)C6)c(F)c5)CC4)cc3C2=O)C(=O)N1 (stereo partly drawn) [Example 84, 3-(6-(4-((6-(((6aR,8R)-6a-(difluoromethyl)-2-(3-fluoro-2-hydroxyphenyl)-5,6,6a,7,8,9-hexahydropyrrolo[1′,2′:4,5]pyrazino[2,3-c]pyridazin-8-yl)oxy)-5-fluoropyridin-3-yl)methyl)piperazin-1-yl)-1-oxoisoindolin-2-yl)piperidine-2,6-dione] | 100 to 1000 | < 50 | < 100 | > 75
8 | Cc1cc(O[C@@H]2C[C@@H]3CNc4nnc(-c5cccc(F)c5O)cc4N3C2)ccc1CN1CCN(c2ccc3c(c2)C(=O)N(C2CCC(=O)NC2=O)C3)CC1 (stereo partly drawn) [Example 11, 3-(6-(4-(4-(((6aR,8R)-2-(3-fluoro-2-hydroxyphenyl)-5,6,6a,7,8,9-hexahydropyrrolo[1′,2′:4,5]pyrazino[2,3-c]pyridazin-8-yl)oxy)-2-methylbenzyl)piperazin-1-yl)-1-oxoisoindolin-2-yl)piperidine-2,6-dione] | < 100 | 50 to 75 | < 100 | > 75
9 | Cc1cc(S[C@@H]2C[C@@H]3CNc4nnc(-c5cc(F)cc(F)c5O)cc4N3C2)ncc1CN1CCN(c2ccc3c(c2)C(=O)N([C@H]2CCC(=O)NC2=O)C3)CC1 [Example 38, (S)-3-(6-(4-((6-(((6aR,8R)-2-(3,5-difluoro-2-hydroxyphenyl)-5,6,6a,7,8,9-hexahydropyrrolo[1′,2′:4,5]pyrazino[2,3-c]pyridazin-8-yl)thio)-4-methylpyridin-3-yl)methyl)piperazin-1-yl)-1-oxoisoindolin-2-yl)piperidine-2,6-dione] | > 1000 | < 50 | < 100 | > 75
10 | CC[C@@]12CNc3nnc(-c4cccc(F)c4O)cc3N1C[C@H](Oc1cc(C)c(CN3CCN(c4ccc5c(c4)C(=O)N([C@H]4CCC(=O)NC4=O)C5)CC3)cn1)C2 [Example 56, 3-(6-(4-((6-(((6aR,8R)-6a-Ethyl-2-(3-fluoro-2-hydroxyphenyl)-5,6,6a,7,8,9-hexahydropyrrolo[1′,2′:4,5]pyrazino[2,3-c]pyridazin-8-yl)oxy)-4-methylpyridin-3-yl)methyl)piperazin-1-yl)-1-oxoisoindolin-2-yl)piperidine-2,6-dione] | < 100 | 50 to 75 | < 100 | > 75
11 | Cc1cc(CN2CCC(c3ccc4c(c3)C(=O)N([C@H]3CCC(=O)NC3=O)C4)CC2)ncc1O[C@H]1CN2c3cc(-c4cccc(C)c4O)nnc3NC[C@]2(C(F)F)C1 [Example 94, (S)-3-(6-(1-((5-(((6aS,8R)-6a-(difluoromethyl)-2-(2-hydroxy-3-methylphenyl)-5,6,6a,7,8,9-hexahydropyrrolo [1′,2′:4,5]pyrazino[2,3-c]pyridazin-8-yl)oxy)-4-methylpyridin-2-yl)methyl)piperidin-4-yl)-1-oxoisoindolin-2-yl)piperidine-2,6-dione] | > 1000 | < 50 | < 100 | 50 to 75
12 | Cc1nc(O[C@H]2CN3c4cc(-c5cccc(F)c5O)nnc4NC[C@@]3(C)C2)nc(C)c1CN1CCC(c2ccc3c(c2)C(=O)N([C@H]2CCC(=O)NC2=O)C3)CC1 [Example 78, (S)-3-(6-(1-((2-(((6aR,8R)-2-(3-fluoro-2-hydroxyphenyl)-6a-methyl-5,6,6a,7,8,9-hexahydropyrrolo[1′,2′:4,5]pyrazino[2,3-c]pyridazin-8-yl)oxy)-4,6-dimethylpyrimidin-5-yl)methyl)piperidin-4-yl)-1-oxoisoindolin-2-yl)piperidine-2,6-dione] | > 1000 | < 50 | < 100 | > 75
13 | Cc1cc(CN2CCN(c3ccc4c(c3)C(=O)N([C@H]3CCC(=O)NC3=O)C4)CC2)c(C)nc1O[C@H]1CN2c3cc(-c4cccc(F)c4O)nnc3NC[C@@]2(C(F)F)C1 [Example 87, (S)-3-(6-(4-((6-(((6aR,8R)-6a-(difluoromethyl)-2-(3-fluoro-2-hydroxyphenyl)-5,6,6a,7,8,9-hexahydropyrrolo[1′,2′:4,5]pyrazino[2,3-c]pyridazin-8-yl)oxy)-2,5-dimethylpyridin-3-yl)methyl)piperazin-1-yl)-1-oxoisoindolin-2-yl)piperidine-2,6-dione] | 100 to 1000 | < 50 | < 100 | > 75
14 | O=C1CC[C@H](N2Cc3ccc(N4CCN(Cc5ccc(O[C@H]6CN7c8cc(-c9cccc(F)c9O)nnc8NC[C@]7(C(F)F)C6)cn5)CC4)cc3C2=O)C(=O)N1 [Example 49, (S)-3-(6-(4-((5-(((6aS,8R)-6a-(difluoromethyl)-2-(3-fluoro-2-hydroxyphenyl)-5,6,6a,7,8,9-hexahydropyrrolo [1′,2′:4,5]pyrazino[2,3-c]pyridazin-8-yl)oxy)pyridin-2-yl)methyl)piperazin-1-yl)-1-oxoisoindolin-2-yl)piperidine-2,6-dione] | 100 to 1000 | < 50 | < 100 | > 75
15 | CC[C@]12CNc3nnc(-c4cccc(F)c4O)cc3N1C[C@H](Oc1cnc(CN3CCC(c4ccc5c(c4)C(=O)N([C@H]4CCC(=O)NC4=O)C5)CC3)cn1)C2 [Example 103, (S)-3-(6-(1-((5-(((6aS,8R)-6a-ethyl-2-(3-fluoro-2-hydroxyphenyl)-5,6,6a,7,8,9-hexahydropyrrolo[1′,2′:4,5]pyrazino[2,3-c]pyridazin-8-yl)oxy)pyrazin-2-yl)methyl)piperidin-4-yl)-1-oxoisoindolin-2-yl)piperidine-2,6-dione] | < 100 | 50 to 75 | < 100 | > 75
